{"source": "patent US20150259371A1", "about": "“METHODS AND COMPOUNDS FOR INHIBITING GLYCOSYLTRANSFERASES” (SIMON FRASER UNIVERSITY, priority 2010, published 2015)", "key": {"[1]": {"system": "core (α1,6)-fucosylation in CHO K1 cells", "experiment": "Aleura aurantia lectin blot of CHO K1 cells", "format": "cell-based", "conditions": "CHO K1, 48 h"}, "[2]": {"system": "sialyl-Lewis X (sLeX) expression in HepG2 cells", "experiment": "Immunoblot and lectin blot of HepG2 lysates", "format": "cell-based, human", "method": "More specifically, monolayers of Hep G2 cells were grown to about 75% confluency in DMEM containing 10% FBS before they were switched to serum free media for 10 h. FBS-free conditions were utilized to limit the amount of fucose which could be made available to cells upon degradation of serum glycoproteins. Cells were subsequently exposed to peracetylated 5-thio-L-fucose (5-T-Fuc) in serum free media for 48 h after which the media were collected, gently centrifuged (800 rpm, 10 min, 4° C.) to remove dead cells, and concentrated (˜10-fold) by centrifugal filration (Amicon, NMWCO 3000 daltons). Cells were washed with cold PBS prior to harvesting them in PBS+0.5% SDS. Proteins were solubilised upon sonication (2 blasts, 10 sec, 15% power) and protein concentrations were determined for all samples by the DC protein concentration assay (BioRad). Samples were normalized prior to analysis. Identical amounts of proteins were analyzed for all lectin-blotting experiments. Cell extracts and conditioned media containing secreted proteins were all analyzed on 8% polyacrylamide gels (FIG. 10).\nMonolayers of HepG2 cells were exposed to 50 μM 5-T-Fuc for varying lengths of time before they were harvested as described above. When necessary, fresh media and inhibitors were added after 24 h. Alternatively, cells were exposed to 5-T-Fuc for 24 h after which the media was replaced and cells were harvested at the indicated time-points (FIG. 11)."}, "[3]": {"system": "anti-O-GlcNAc antibody CTD110.6", "experiment": "Blocking of anti-O-GlcNAc antibody binding to modified nup62", "conditions": "0-3 mM", "method": "Blocking antibody interactions: Recombinantly modified nup62 was run on a gel and transferred onto nitrocellulose membrane. CTD110.6 at the appropriate dilution was incubated with 0-3 mM Me-GlcNAc or Me-5SGlcNAc for 1 h prior to applying to the membrane overnight at 4° C. The standard procedure for western blots was subsequently followed."}, "OGT [4]": {"target": "T1, OGT (Homo sapiens, UniProt O15294)", "T1 construct": "made in house", "T1 sequence (O15294 whole entry, the tested form may be a part)": "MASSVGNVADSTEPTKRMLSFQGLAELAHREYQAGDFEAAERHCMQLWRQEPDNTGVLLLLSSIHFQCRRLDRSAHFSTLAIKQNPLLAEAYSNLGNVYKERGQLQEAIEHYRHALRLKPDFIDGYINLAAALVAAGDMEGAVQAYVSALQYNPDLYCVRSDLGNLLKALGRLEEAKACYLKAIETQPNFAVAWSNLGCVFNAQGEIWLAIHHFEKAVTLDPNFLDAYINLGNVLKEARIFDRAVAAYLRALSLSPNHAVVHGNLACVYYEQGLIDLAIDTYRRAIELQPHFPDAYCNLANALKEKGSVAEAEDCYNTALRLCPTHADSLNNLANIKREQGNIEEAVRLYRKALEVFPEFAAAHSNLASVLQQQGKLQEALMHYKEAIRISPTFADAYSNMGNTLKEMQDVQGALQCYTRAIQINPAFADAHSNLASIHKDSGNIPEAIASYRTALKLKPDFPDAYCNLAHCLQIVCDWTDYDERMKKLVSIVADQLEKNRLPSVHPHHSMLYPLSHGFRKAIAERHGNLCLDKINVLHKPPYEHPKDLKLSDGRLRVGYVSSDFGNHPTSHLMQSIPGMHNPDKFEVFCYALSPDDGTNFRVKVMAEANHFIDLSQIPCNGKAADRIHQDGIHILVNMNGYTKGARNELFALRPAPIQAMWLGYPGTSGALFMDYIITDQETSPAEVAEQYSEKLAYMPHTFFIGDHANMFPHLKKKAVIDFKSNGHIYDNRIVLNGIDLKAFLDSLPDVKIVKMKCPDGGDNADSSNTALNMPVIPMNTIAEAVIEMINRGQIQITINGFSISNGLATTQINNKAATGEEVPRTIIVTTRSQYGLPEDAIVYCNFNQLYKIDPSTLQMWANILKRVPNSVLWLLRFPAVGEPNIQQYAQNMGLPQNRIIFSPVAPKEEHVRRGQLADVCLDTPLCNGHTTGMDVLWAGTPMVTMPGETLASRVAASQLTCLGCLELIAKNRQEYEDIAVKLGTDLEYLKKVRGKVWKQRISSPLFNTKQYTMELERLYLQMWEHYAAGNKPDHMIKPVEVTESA", "experiment": "OGT transfer: UDP-sugar as donor, nup62 acceptor, UDP production by CE", "format": "biochemical", "method": "Capillary electrophoresis (CE): CE was performed on a ProteomeLab PA800 (Beckman-Coulter) using fused silica capillaries of […]×44 cm (to detector). The running buffer was 40 mM Na2B4O7 (Sigma), pH 9.5, containing 1.0% (wv) polyethylene glycol (MW 20,000; Fluka) and filtered prior to use. The capillary was conditioned by washing with 1 N NaOH (2 min, 20 psi), 18 MΩ H2O (3 min, 20 psi) and running buffer (5 min, 40 psi). After injecting a short (15 nL) H2O plug, samples were electrostatically introduced and pre-concentrated at the anode by applying a potential of -0.5 kV for 10 s according to the field-amplified sample injection technique described by Chien and Burgi^39. […] Electropherograms were derived by measuring the absorbance at 254 (+/−10) nm at a rate of 4 Hz. […]\nOGT transfer: The ability of OGT (which was over-expressed and purified as described in Ref. ^40) to transfer UDP-5SGlcNAc was tested using recombinant nup62 as the acceptor. […] Production of UDP was monitored at 254 nm; the concentration was determined from a standard curve of UDP standards, which were prepared in triplicate using the same procedure as the reactions, at a concentration of between […] Controls in the absence of nup62 were subtracted to account for OGT-catalyzed hydrolysis of the UDP-sugars."}, "OGT [5]": {"target": "T1, OGT", "conditions": "literature refs 40, 53; read-out: Km of natural substrate for OGT; cited from earlier work"}}, "note": "Entries after “also recorded” stand apart in the source; their conditions may differ. Where a name gives a salt, the structure may show the parent alone.", "data": [{"compound": "C[C@H](S)[C@@H](O)[C@@H](O)[C@H](O)C=O", "note": "[Compound 5-T-Fuc, 5-thiofucose]", "values": [{"measurement": "core-fucosylated antigens by Aleura aurantia lectin", "setting": "[1]", "value": "no further decrease in lectin reactivity was observed above inhibitor concentrations of 5 μM; also recorded: reduction in core (α1,6)-fucosylation"}, {"measurement": "sLeX expression, time course", "setting": "[2]; HepG2, 50 μM", "value": "reduces sLeX expression in a time-dependant fashion"}, {"measurement": "Aleura aurantia lectin reactivity", "setting": "[2]; HepG2, 48 h", "value": "no decrease in Aleura aurantia lectin reactivity was observed"}, {"measurement": "Maackia amurensis lectin binding", "setting": "[2]; HepG2, 48 h", "value": "dose-dependent increase in Maackia amurensis lectin binding"}, {"measurement": "time to full recovery of sLeX expression after exposure", "setting": "[2]; HepG2, after a 24 h exposure", "value": "≤ 24", "unit": "h"}, {"measurement": "sLeX expression, dose response", "setting": "[2]; HepG2, serum free media, 48 h, anti-CD15s", "value": "significant, dose-dependent decrease in sLe^X expression; also recorded: reduces sialyl-lewis X expression in HepG2 liver cells"}]}, {"compound": "CO[C@H]1S[C@H](CO)[C@@H](O)[C@H](O)[C@H]1NC(C)=O", "note": "[Compound 16, Methyl 2-acetamido-2-deoxy-5-thio-a-D-glucopyranoside]", "values": [{"measurement": "blocking of CTD110.6 binding", "setting": "[3]", "value": "blocks binding almost as well as Me-GlcNAc"}]}, {"compound": "CC(=O)N[C@@H]1[C@@H](O)[C@H](O)[C@@H](CO)S[C@@H]1OP(=O)(O)OP(=O)(O)OC[C@H]1O[C@@H](n2ccc(=O)[nH]c2=O)[C@H](O)[C@@H]1O", "note": "[UDP-5SGlcNAc, 5′-(2-acetamido-2-deoxy-5-thio-a-D-glucopyranosyl)diphosphate triethylammonium salt]", "values": [{"measurement": "fold worse donor substrate for OGT as compared to UDP-GlcNAc", "setting": "OGT [4]", "value": "approximately 14 fold"}]}, {"compound": "uridine diphospho-N-acetylglucosamine [UDP-GlcNAc]", "values": [{"measurement": "Km", "setting": "OGT [5]", "value": "2 to 7", "unit": "µM"}]}]}
